Values after ≈ are worked out from the molar mass of the structure shown.
What was measured:
[1] = test system: A375 melanoma cells; test: Cell viability by cell counting, trypan blue exclusion method; format: cell-based; settings: Homo sapiens, A-375, 48 h, percentage of cells alive relative to negative control DMSO (100%)
[2] = test system: Normal human fibroblasts (FHN); test: In vitro toxicity test on normal human fibroblasts, 48 h; format: cell-based; settings: concentration 10 times higher than its IC50, FIG. 2
[3] = test system: normal human melanocytes (MHN); test: In vitro toxicity test on normal human melanocytes, 48 h; format: cell-based; settings: concentration 10 times higher than its IC50, FIG. 2
[4] = Aqueous solubility; format: physicochemical; settings: aqueous medium (not further specified), read-out: Solublity
[5] = Pharmacokinetics in mice (half-life, AUC IV, AUC PO); format: in vivo; settings: for half-life: mouse, in vivo, 1 mg/kg, head prints both IV and PO administration 1 mpk, read-out: T½ IV (min) (PO administration 1 mpk)
[6] = test system: CHOP in A375 melanoma cells; test: CHOP induction (ER stress marker), western blot, A375; format: cell-based, human; set-up: key: −: No induction of CHOP; +: Induction of CHOP; ++: Significant induction of CHOP; +++: Strong induction of CHOP; settings: A375 (serum free), 24 h
[7] = test system: CHOP in Kyse 70 cells; test: CHOP induction (ER stress marker), western blot, Kyse70; format: cell-based, human; set-up: key: −: No induction of CHOP; +: Induction of CHOP; ++: Significant induction of CHOP; +++: Strong induction of CHOP; settings: Kyse70 (serum free), 24 h
[8] = test system: CHOP in SH10TC cells; test: CHOP induction (ER stress marker), western blot, SH10TC; format: cell-based, human; set-up: key: −: No induction of CHOP; +: Induction of CHOP; ++: Significant induction of CHOP; +++: Strong induction of CHOP; settings: SH10TC (serum free), 24 or 48 h
[9] = test system: CHOP in KATO III cells; test: CHOP induction (ER stress marker), western blot, Kato III; format: cell-based, human; set-up: key: −: No induction of CHOP; +: Induction of CHOP; ++: Significant induction of CHOP; +++: Strong induction of CHOP; settings: Kato III (1% SVF), 24 or 48 h
[10] = test system: A375 melanoma cells; test: IC50 determination in A375 cells, blue trypan exclusion; format: cell-based, human; settings: Homo sapiens, A-375; A375, serum free, 24 h
[11] = test system: NCI-60 Human Tumor Cell Lines; test: DTP-NCI-60 Human Tumor Cell Lines screen, one-dose; format: cell-based; settings: growth relative to no-drug control and time zero, 100 = no inhibition, 0 = no net growth, negative = lethality
[12] = Chemical stability in PBS/DMSO and aqueous HCl; format: physicochemical; settings: 24 h

SMILES	solubility [4]	AUC IV (min · ng/mL/mpk) [5]	AUC PO (min · ng/mL/mpk) [5]	half-life [5]	IC50 [10]	chemical stability ([12]; PBS (pH 7.4), 20% DMSO)	chemical stability ([12]; PBS (pH 7.4), 20% DMSO, 80° C.)	chemical stability ([12]; aqueous HCl (0.1M))	viability at 5 µM ([1]; 5 μM)	viability at 10 µM ([1]; 10 μM)	toxicity in normal human fibroblasts [2]	toxicity in normal human melanocytes [3]	Induction of CHOP in comparison to control condition, A375 [6]	Induction of CHOP in comparison to control condition, Kyse70 [7]	Induction of CHOP in comparison to control condition, SH10TC [8]	Induction of CHOP in comparison to control condition, Kato III [9]	Mean growth inhibition value (data from DTP-NCI60) [11]
CC(=O)NCCCCCC(=O)Nc1nc(-c2cccc(NS(=O)(=O)c3cccc4c(N(C)C)cccc34)c2)cs1 [PB628, 6-acetamido-N-(4-(3-((5-(dimethylamino)naphthalene)-1-sulfonamido)phenyl)thiazol-2-yl)hexanamide]									25.2 ± 6.1%	12.5 ± 6.7%	no toxicity	no toxicity					
CCCCCc1ccc(S(=O)(=O)Nc2cccc(-c3csc(NC(=O)CN4CCN(CCO)CC4)n3)c2)cc1 [PB689, 2-(4-(2-hydroxyethyl)piperazin-1-yl)-N-(4-(3-((4-pentylphenyl)sulfonamido)phenyl)thiazol-2-yl)acetamide]				110 min	1.3 µM								+	+	+++	++	
CCCCCc1ccc(S(=O)(=O)Nc2cc(-c3csc(NC(=O)CN4CCN(C)CC4)n3)ccc2OC)cc1 [PB691, N-(4-(4-methoxy-3-((4-pentylphenyl)sulfonamido)phenyl)thiazol-2-yl)-2-(4-methylpiperazin-1-yl)acetamide]			6266 min · ng/mL/mpk	77 min	1.7 µM								+	++	−	+	
CCCCCc1ccc(S(=O)(=O)Nc2cccc(-c3csc(NC(=O)CCCCCN4CCN(C)CC4)n3)c2)cc1 [PB694, 6-(4-methylpiperazin-1-yl)-N-(4-(3-((4-pentylphenyl)sulfonamido)phenyl)thiazol-2-yl)hexanamide]					0.75 µM								+	++	++	+	37.26
CCCCCc1ccc(S(=O)(=O)Nc2cccc(-c3csc(NCCN4CCN(C)CC4)n3)c2)cc1 [PB704, N-(3-(2-((2-(4-methylpiperazin-1-yl)ethyl)amino)thiazol-4-yl)phenyl)-4-pentylbenzenesulfonamide]	1.4 ± 0.3 µM (≈ 0.739 µg/mL)	197707 min · ng/mL/mpk	4435 min · ng/mL/mpk		1.2 µM	full stability	full stability	full stability					++	+	−	+	55.54
CCCCCc1ccc(S(=O)(=O)N(C(C)=O)c2cccc(-c3csc(N(CCN4CCN(C)CC4)C(C)=O)n3)c2)cc1 [PB705, N-(2-(4-methylpiperazin-1-yl)ethyl)-N-(4-(3-(N-((4-pentylphenyl)sulfonyl)acetamido)phenyl)thiazol-2-yl)acetamide]					1.3 µM								++			++	5.64

More lines, in order of falling IC50 [10], values ahead:

solubility [4]	AUC IV (min · ng/mL/mpk) [5]	AUC PO (min · ng/mL/mpk) [5]	half-life [5]	IC50 [10]	chemical stability ([12]; PBS (pH 7.4), 20% DMSO)	chemical stability ([12]; PBS (pH 7.4), 20% DMSO, 80° C.)	chemical stability ([12]; aqueous HCl (0.1M))	SMILES	viability at 5 µM ([1]; 5 μM)	viability at 10 µM ([1]; 10 μM)	toxicity in normal human fibroblasts [2]	toxicity in normal human melanocytes [3]	Induction of CHOP in comparison to control condition, A375 [6]	Induction of CHOP in comparison to control condition, Kyse70 [7]	Induction of CHOP in comparison to control condition, SH10TC [8]	Induction of CHOP in comparison to control condition, Kato III [9]	Mean growth inhibition value (data from DTP-NCI60) [11]
7 ± 5 µM (≈ 4.21 µg/mL)	488474 min · ng/mL/mpk	3978 min · ng/mL/mpk		1.6 µM				CCCCCc1ccc(S(=O)(=O)Nc2cc(-c3csc(NC(=O)CN4CCN(CCO)CC4)n3)ccc2OC)cc1 [PB692, 2-(4-(2-hydroxyethyl)piperazin-1-yl)-N-(4-(4-methoxy-3-((4-pentylphenyl)sulfonamido)phenyl)thiazol-2-yl)acetamide]					+	+	+	+	23.99
17 ± 7 µM (≈ 9.21 µg/mL)	112348 min · ng/mL/mpk	3000 min · ng/mL/mpk	76 min	1 µM				CCCCCc1ccc(S(=O)(=O)Nc2cccc(-c3csc(NC(=O)CN4CCN(C)CC4)n3)c2)cc1 [PB688, 2-(4-methylpiperazin-1-yl)-N-(4-(3-((4-pentylphenyl)sulfonamido)phenyl)thiazol-2 yl)acetamide]					+++	+++	++	+	
49 ± 16 µM (≈ 31.4 µg/mL)			312 min	0.9 µM				CCCCCc1ccc(S(=O)(=O)Nc2cc(-c3csc(NC(=O)CN4CCN(C)CC4)n3)ccc2N2CCN(C)CC2)cc1 [PB696, 2-(4-methylpiperazin-1-yl)-N-(4-(4-(4-methylpiperazin-1-yl)-3-((4-pentylphenyl)sulfonamido)phenyl)thiazol-2-yl)acetamide]					+	−	++	+	
				0.6 µM				CCCCCc1ccc(S(=O)(=O)Nc2cccc(-c3csc(NC(=O)CCCCCN4CCN(CCO)CC4)n3)c2)cc1 [PB695, 6-(4-(2-hydroxyethyl)piperazin-1-yl)-N-(4-(3-((4-pentylphenyl)sulfonamido)phenyl)thiazol-2-yl)hexanamide]					+	+	++	−	

From patent US20250353821A1, “BENZENE SULFONAMIDE THIAZOLE COMPOUNDS AND THEIR USE FOR THE TREATMENT OF CANCERS” (INSERM (INSTITUT NATIONAL DE LA SANTÉ ET DE LA RECHERCHE …, priority 2021, published 2025)
